Data as given in paper PMC9090415, “Discovery of small molecule inhibitors of Plasmodium falciparum apicoplast DNA polymerase” (Journal of Enzyme Inhibition and Medicinal Chemistry, 2022).

Molecular target: P. falciparum apicoplast DNA polymerase (Pf-apPOL) (Plasmodium falciparum, UniProt Q8ILY1)
Experiment: Fluorescence-based high-throughput DNA polymerase assay (molecular beacon), primary screen and dose-response
Format: biochemical
Description: The HT assay employs a molecular beacon, a stem-loop DNA template with a Cy3 dye and the Black Hole Quencher on the 3′ and 5′ ends of the DNA, respectively. Pf-apPOL concentration is based on a calculated absorptivity of ε280 = 56750 M^−1 cm^−1. Reactions were carried out at 25 °C, using Corning 3575 […] (well-volume, 20 µL). Assays testing for compound inhibition composed of reaction buffer (pH 7.9 in 50 mM potassium acetate, 20 mM Tris-acetate and 10 mM magnesium acetate), Pf-apPOL (20 nM), DNA substrate (20 nM), dNTPs (6 µM), and compound (10 µM in DMSO). The DNA and nucleotide substrates (dNTPs) were at concentrations of 20 nM and 6 µM, respectively, in the assay. Pf-apPOL was incubated in the reaction buffer with dNTPs and the compound of interest (10 µM, in the assay) at 25 °C for 10 min. The DNA substrate was then added and the reaction was allowed to proceed for 90 min at 25 °C.
Each assay plate contained 16 negative controls (no Pf-apPOL, DMSO present) and 16 positive controls (Pf-apPOL present, no DMSO). The fluorescence of each well was determined using a BioTek Synergy Neo fluorescence plate reader using excitation and emission wavelengths of 555 and 570 nm, respectively.
In the above, Min is the average of fluorescence emission of the negative controls (substrate only), Max the average fluorescence emission from the positive controls (enzyme + substrate), and Test the emission from the assays in the presence of compounds (enzyme + compound + substrates). […] […] The IC50 of each compound was determined using Equation (2): (2) IC50= Vmax/(1+ (I/IC50)^n)
In the above, n measures cooperativity, with n > 1 indicating synergistic binding of more than a single molecule of the compound.
To identify apPOL inhibitors we utilised our previously developed high-throughput DNA polymerase assay. The HT assay is based on a molecular beacon DNA template that forms a stem-loop with a Cy3 dye and the Black Hole Quencher on the 3′ and 5′ ends of the DNA, respectively. DNA polymerase activity extends an annealed primer through the stem region, displacing the fluorophore from the quencher, thereby increasing its fluorescence (Figure 1(A)). The assay accurately recapitulates the kinetic behaviour of apPOL, as measured through more conventional low-throughput gel-based assays. The Z′ factor for the assay described here was 0.9 across all plates (data not shown).
Figure 1. High-throughput screening. (A) The fluorescent-based DNA polymerase assay used to screen the compound libraries. The DNA template strand is a hairpin loop with a primer annealed to the loop. The 3’ end of the primer is 11 bases away from the 6 bp duplex. Strand displacement activity of the DNA polymerase separates the Cy3 dye from the Black hole quencher leading to an increase in fluorescent signal. (B) The high-throughput assay workflow. The DNA polymerase is incubated with […] compound for 10 min prior to addition of the hairpin substrate. The reaction is quenched at 3 different time points and the fluorescent signal is measured and % inhibition is determined using the provided equation.

[1] = supplemental file 2, sheet IC50 nontoxic compounds; Pf-apPOL

Chain of P. falciparum apicoplast DNA polymerase (Pf-apPOL) (Q8ILY1 entry or part of it): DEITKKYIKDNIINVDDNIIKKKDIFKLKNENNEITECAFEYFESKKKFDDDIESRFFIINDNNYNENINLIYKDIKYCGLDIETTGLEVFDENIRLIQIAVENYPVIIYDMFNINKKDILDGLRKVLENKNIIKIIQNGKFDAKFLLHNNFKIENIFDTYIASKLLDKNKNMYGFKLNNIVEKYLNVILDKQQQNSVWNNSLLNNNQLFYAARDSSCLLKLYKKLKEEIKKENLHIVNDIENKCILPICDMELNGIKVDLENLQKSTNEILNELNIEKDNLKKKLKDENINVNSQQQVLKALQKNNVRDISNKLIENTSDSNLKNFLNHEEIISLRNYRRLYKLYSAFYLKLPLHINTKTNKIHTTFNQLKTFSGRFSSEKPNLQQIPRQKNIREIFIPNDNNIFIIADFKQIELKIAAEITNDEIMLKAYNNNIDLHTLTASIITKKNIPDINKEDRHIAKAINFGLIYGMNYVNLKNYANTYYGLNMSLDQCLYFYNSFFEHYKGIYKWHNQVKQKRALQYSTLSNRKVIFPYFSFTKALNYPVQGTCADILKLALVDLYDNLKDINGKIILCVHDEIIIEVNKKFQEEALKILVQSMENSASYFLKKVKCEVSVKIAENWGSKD

Compound: O=C1Nc2ccc(I)cc2C1=Cc1cc(Br)c(O)c(Br)c1 [Molecule 27, Ic1ccc2c(c1)C(=Cc1cc(Br)c(c(c1)Br)O)C(=O)N2]
- DNA Pol ('DNA Pol' of the 186 hits list (screen value); 90 min, 10 µM): 52
- % inhibition Apo pol 10' (DRC-1; 10'; conc 2.5): -2.766%
- % inhibition Apo pol 10' (DRC-1; 10'; conc 5): 14.7903%
- % inhibition Apo pol 10' (DRC-1; 10'; conc 10): 55.8319%
- % inhibition Apo pol 10' (DRC-1; 10'; conc 20): 68.6495%
- % inhibition Apo pol 10' (DRC-1; 10'; conc 40): 74.9605%
- % inhibition Apo pol 10' (DRC-1; 10'; conc 80): 94.5024%
- % inhibition Apol 90' (DRC-1; 90'; conc 2.5): -5.207%
- % inhibition Apol 90' (DRC-1; 90'; conc 5): 5.358%
- % inhibition Apol 90' (DRC-1; 90'; conc 10): 51.0216%
- % inhibition Apol 90' (DRC-1; 90'; conc 20): 63.6894%
- % inhibition Apol 90' (DRC-1; 90'; conc 40): 72.1753%
- % inhibition Apol 90' (DRC-1; 90'; conc 80): 93.708%
- % inhibition apPOL 180' (DRC-1; 180'; conc 2.5): -6.922%
- % inhibition apPOL 180' (DRC-1; 180'; conc 5): 0.7186%
- % inhibition apPOL 180' (DRC-1; 180'; conc 10): 40.1564%
- % inhibition apPOL 180' (DRC-1; 180'; conc 20): 53.0871%
- % inhibition apPOL 180' (DRC-1; 180'; conc 40): 65.7742%
- % inhibition apPOL 180' (DRC-1; 180'; conc 80): 93.2975%
- % inhibition Apo pol 5' (DRC-2; 5'; conc 2.5): -1.67%
- % inhibition Apo pol 5' (DRC-2; 5'; conc 5): 2.85%
- % inhibition Apo pol 5' (DRC-2; 5'; conc 10): 38%
- % inhibition Apo pol 5' (DRC-2; 5'; conc 20): 54%
- % inhibition Apo pol 5' (DRC-2; 5'; conc 40): 54%
- % inhibition Apo pol 5' (DRC-2; 5'; conc 80): 54%
- % inhibition Apo pol 5' (DRC-2; 5'; concentration 20): 54%
- % inhibition Apo pol 5' (DRC-2; 5'; concentration 40): 54%
- % inhibition Apo pol 5' (DRC-2; 5'; concentration 80): 54%
- % inhibition Apol 40' (DRC-2; 40'; conc 2.5): 0.385%
- % inhibition Apol 40' (DRC-2; 40'; conc 5): 11%
- % inhibition Apol 40' (DRC-2; 40'; conc 10): 48%
- % inhibition Apol 40' (DRC-2; 40'; conc 20): 68%
- % inhibition Apol 40' (DRC-2; 40'; conc 40): 71%
- % inhibition Apol 40' (DRC-2; 40'; conc 80): 72%
- % inhibition Apol 40' (DRC-2; 40'; concentration 5): 11%
- % inhibition Apol 40' (DRC-2; 40'; concentration 10): 48%
- % inhibition Apol 40' (DRC-2; 40'; concentration 80): 72%
- % inhibition ApPOL 90' (DRC-2; 90'; conc 2.5): 2.27%
- % inhibition ApPOL 90' (DRC-2; 90'; conc 5): 11%
- % inhibition ApPOL 90' (DRC-2; 90'; conc 10): 48%
- % inhibition ApPOL 90' (DRC-2; 90'; conc 20): 70%
- % inhibition ApPOL 90' (DRC-2; 90'; conc 40): 74%
- % inhibition ApPOL 90' (DRC-2; 90'; conc 80): 76%
- % inhibition ApPOL 90' (DRC-2; 90'; concentration 5): 11%
- % inhibition ApPOL 90' (DRC-2; 90'; concentration 10): 48%
- % inhibition ApPOL 90' (DRC-2; 90'; concentration 80): 76%
- % inhibition apPOL 180' (DRC-2; 180'; conc 2.5): 0.56%
- % inhibition apPOL 180' (DRC-2; 180'; conc 5): 6%
- % inhibition apPOL 180' (DRC-2; 180'; conc 10): 40%
- % inhibition apPOL 180' (DRC-2; 180'; conc 20): 67%
- % inhibition apPOL 180' (DRC-2; 180'; conc 40): 72%
- % inhibition apPOL 180' (DRC-2; 180'; conc 80): 76%
- % inhibition apPOL 180' (DRC-2; 180'; concentration 40): 72%
- % inhibition apPOL 180' (DRC-2; 180'; concentration 80): 76%
- DNA Pol (primary screen value, "DNA Pol"; 90 min, 10 µM): 52

Compound: COc1ccccc1CC(=O)N1CCc2c(nc3cc(-c4ccccc4Cl)[nH]n3c2=O)C1 [Molecule 49]
- IC50 [1]: 12.5 µM

Compound: COc1ccc(C=C2Oc3c(ccc4c3CN(Cc3ccco3)CO4)C2=O)c(OC)c1 [KU0199404]
- % inhibition Apo pol 10' (DRC-1; concentration 2.5; 10'): 1.778%
- % inhibition Apol 90' (DRC-1; concentration 2.5; 90'): 6.394%
- % inhibition apPOL 180' (DRC-1; concentration 2.5; 180'): 14.4773%
- % inhibition Apo pol 10' (DRC-1; concentration 5; 10'): 2.359%
- % inhibition Apol 90' (DRC-1; concentration 5; 90'): 10.7843%
- % inhibition apPOL 180' (DRC-1; concentration 5; 180'): 25.2477%
- % inhibition Apo pol 10' (DRC-1; concentration 10; 10'): 17.8134%
- % inhibition Apol 90' (DRC-1; concentration 10; 90'): 29.7292%
- % inhibition apPOL 180' (DRC-1; concentration 10; 180'): 48.7066%
- % inhibition Apo pol 10' (DRC-1; concentration 20; 10'): 37.7158%
- % inhibition Apol 90' (DRC-1; concentration 20; 90'): 50.8732%
- % inhibition apPOL 180' (DRC-1; concentration 20; 180'): 69.9557%
- % inhibition Apo pol 10' (DRC-1; concentration 40; 10'): 58.5562%
- % inhibition Apol 90' (DRC-1; concentration 40; 90'): 70.9348%
- % inhibition apPOL 180' (DRC-1; concentration 40; 180'): 86.2262%
- % inhibition Apo pol 10' (DRC-1; concentration 80 (unit not given); 10'): 73.935%
- % inhibition Apol 90' (DRC-1; concentration 80; 90'): 78.9077%
- % inhibition apPOL 180' (DRC-1; concentration 80; 180'): 90.2103%
- % inhibition Apo pol 5' (DRC-2; 5'; concentration 10): 33%
- % inhibition Apo pol 5' (DRC-2; 5'; concentration 80): 49%
- % inhibition Apol 40' (DRC-2; 40'; concentration 10): 33%
- % inhibition Apol 40' (DRC-2; 40'; concentration 20): 49%
- % inhibition Apo pol 5' (DRC-2; concentration 2.5; 5'): 5%
- % inhibition Apol 40' (DRC-2; concentration 2.5; 40'): 1.45%
- % inhibition ApPOL 90' (DRC-2; concentration 2.5; 90'): -0.679%
- % inhibition apPOL 180' (DRC-2; concentration 2.5; 180'): -6%
- % inhibition Apo pol 5' (DRC-2; concentration 5; 5'): 12%
- % inhibition Apol 40' (DRC-2; concentration 5; 40'): 3.41%
- % inhibition ApPOL 90' (DRC-2; concentration 5; 90'): -6.4%
- % inhibition apPOL 180' (DRC-2; concentration 5; 180'): -80%
- % inhibition Apo pol 5' (DRC-2; concentration 10; 5'): 33%
- % inhibition Apol 40' (DRC-2; concentration 10; 40'): 33%
- % inhibition ApPOL 90' (DRC-2; concentration 10; 90'): 30%
- % inhibition apPOL 180' (DRC-2; concentration 10; 180'): 17%
- % inhibition Apo pol 5' (DRC-2; concentration 20; 5'): 46%
- % inhibition Apol 40' (DRC-2; concentration 20; 40'): 49%
- % inhibition ApPOL 90' (DRC-2; concentration 20; 90'): 45%
- % inhibition apPOL 180' (DRC-2; concentration 20; 180'): 31%
- % inhibition Apo pol 5' (DRC-2; concentration 40; 5'): 52%
- % inhibition Apol 40' (DRC-2; concentration 40; 40'): 58%
- % inhibition ApPOL 90' (DRC-2; concentration 40; 90'): 56%
- % inhibition apPOL 180' (DRC-2; concentration 40; 180'): 47%
- % inhibition Apo pol 5' (DRC-2; concentration 80; 5'): 49%
- % inhibition Apol 40' (DRC-2; concentration 80; 40'): 51%
- % inhibition ApPOL 90' (DRC-2; concentration 80; 90'): 48%
- % inhibition apPOL 180' (DRC-2; concentration 80; 180'): 43%
- DNA Pol (primary screen value of the 186 hits; unit not given; 90 min, 10 µM): 29
- DNA Pol (primary screen value; head prints only 'DNA Pol'; 90 min, 10 µM): 29

Compound: COc1cc(Cl)c(C)cc1NC(=O)Cn1ccc2c(=O)[nH]ccc21 [Molecule 33]
- IC50 [1]: 10.3 µM
